Data from patent publication US20130150399A1, “INHIBITORS OF THE UNFOLDED PROTEIN RESPONSE AND METHODS FOR THEIR USE” (The Board of Trustees of the Leland Stanford Junior …, priority 2006, published 2013).

What was measured:
phospho-IRE1α = assay: Western immunoblot of phospho-IRE1α (IRE1α kinase), HT1080 cells; assay type: cell-based, human; conditions: preincubated 16 hours, 2.5 μM; Tm 5 μg/ml
Procedure: (§1) Cells (2×10^6) were cultured in 10-cm dishes, collected using a cell scraper at 4° C., and lysed by addition of 150 μl cell lysis buffer [50 mM Tris pH 7.4, 150 mM NaCl, 10% glycerol, 0.5% Triton X-100. 0.5% NP-40, 2 mM Na3VO4, 20 mM beta-glycerophosphate, 10 mM NaF, 1 mM DTT, 1 mM PMSF). Lysates were centrifuged for 5 min at 10,000×g, and proteins (˜40 μg) were resolved by SDS-PAGE followed by semi-dry transfer to nitrocellulose membranes. Membranes were blocked in TBS-5% milk supplemented with 0.1% Tween-20. The blots were then probed overnight with relevant antibodies, washed, and incubated for 2 hours with species-specific secondary antibodies conjugated to horseradish peroxidase. After washing in block solution, immunoreactive material was detected by enhanced chemiluminescence (SuperSignal West Dura Extended, Pierce, Inc., Rockville, Ill.).
HT1080 cells were exposed to DMSO vehicle (lane 1), irestatin 9389 (2.5 μM; lane 2) for 16 hours or Tm (5 μg/ml; lane 3) for 8 hours. Following treatments, cells were harvested, lysed, and analyzed by immunoblotting using anti-Grp78 antibody (top) or anti-actin (bottom) as a loading control. […] Cell lysates were analyzed by Western immunoblotting using anti-IRE1α (bottom) or anti-phospho-IRE1α antibodies (top). […] Lysates were analyzed by Western blot using antisera specific for phospho-JNK1 (top) or total JNK1 (bottom). […]

ATF6 = assay: Western blot of ATF6 cleavage, hypoxic HT1080 cells; assay type: cell-based, human; conditions: 2.5 μM
Procedure: as §1
A. Effect of irestatin 9389 on PERK and ATF6 pathways. […] Protein lysates were analyzed by Western blot analysis using antisera specific for ATF6 (top), CHOP/GADD153 (middle) or actin (bottom). […] Cells were harvested, counted, and allowed to grow under normal culture conditions for 11-12 days. […] D. Quantification of clonogenic survival assay. […] F. Quantification of TUNEL-positive cells. […] Cells were harvested at the indicated times and counted by hemocytometer. Values represent the mean calculated from triplicate experiments+/−SEM. […]

Cc1csc(NC(=O)CSc2nc3c(c(C(F)(F)F)c2C#N)CCC3)n1 [Compound 9389]
levels of phospho-IRE1α after addition of Tm (phospho-IRE1α): rapid increase in levels of phospho-IRE1α
proteolytic cleavage of ATF6 into active 50 kDa form (ATF6): significantly increased the proteolytic cleavage of ATF6
